Experimental data published in ChEMBL document CHEMBL5512645, “A novel antimicrobial peptide with broad-spectrum and exceptional stability derived from the natural peptide Brevicidine” (Eur J Med Chem, 2024).
Calls of active or inactive are those of the source. No cut-off for these calls is given here.

What was measured:
Staphylococcus aureus [1] = test: Antibacterial activity against Staphylococcus aureus ATCC 25923 at sub-MIC measured after 4 days; format: functional, organism-based; conditions: time 4.0 day
Pseudomonas aeruginosa [2] = test: Antibacterial activity against Pseudomonas aeruginosa ATCC 27853 at sub-MIC measured after 2 days; format: functional, organism-based; conditions: time 2.0 day
Klebsiella pneumoniae = test: Antibacterial activity against Klebsiella pneumoniae ATCC 700603 incubated for 18 to 24 hrs by broth microdilution method; format: functional; conditions: time 18-24 hrs
Staphylococcus aureus [3] = test: Antibacterial activity against Staphylococcus aureus ATCC 25923 incubated for 18 to 24 hrs by broth microdilution method; format: functional; conditions: time 18-24 hrs
Erythrocyte = test: Hemolytic activity in mouse red blood cell assessed as hemolysis incubated for 1 hr; format: toxicity, cell-based
Enterococcus faecalis = test: Antibacterial activity against Enterococcus faecalis ATCC 29212 incubated for 18 to 24 hrs by broth microdilution method; format: functional; conditions: time 18-24 hrs
Acinetobacter baumannii = test: Antibacterial activity against Acinetobacter baumannii ATCC 19606 incubated for 18 to 24 hrs by broth microdilution method; format: functional; conditions: time 18-24 hrs
Staphylococcus aureus [4] = test: Antibacterial activity against Staphylococcus aureus ATCC 25923 assessed as fold increase in MIC pretreated with Na-cl followed by compound addition and measured after 2 hrs by broth microdilution method; format: functional
Pseudomonas aeruginosa [5] = test: Antibacterial activity against Pseudomonas aeruginosa ATCC 27853 incubated for 18 to 24 hrs by broth microdilution method; format: functional; conditions: time 18-24 hrs
Staphylococcus aureus [6] = test: Antibacterial activity against Staphylococcus aureus ATCC 25923 assessed as fold increase in MIC pretreated with Zncl2 followed by compound addition and measured after 2 hrs by broth microdilution method; format: functional
Escherichia coli = test: Antibacterial activity against Escherichia coli ATCC 25922 incubated for 18 to 24 hrs by broth microdilution method; format: functional; conditions: time 18-24 hrs
Bacillus subtilis = test: Antibacterial activity against Bacillus subtilis ATCC 23857 incubated for 18 to 24 hrs by broth microdilution method; format: functional; conditions: time 18-24 hrs
[7] = test system: Staphylococcus epidermidis; test: Antibacterial activity against Staphylococcus epidermidis ATCC 12228 incubated for 18 to 24 hrs by broth microdilution method; format: functional; conditions: time 18-24 hrs
Pseudomonas aeruginosa [8] = test: Antibacterial activity against Pseudomonas aeruginosa ATCC 27853 at sub-MIC measured after 3 days; format: functional, organism-based; conditions: time 3.0 day
Staphylococcus aureus [9] = test: Antibacterial activity against Staphylococcus aureus ATCC 25923 at sub-MIC measured after 5 days; format: functional, organism-based; conditions: time 5.0 day
[10] = Toxicity in male BALB/c mouse assessed as hemorrhage in kidney at 19.45 mg/kg, ip administered as single dose by H and E staining based analysis; format: organism-based; conditions: in vivo
[11] = Toxicity in male BALB/c mouse assessed as cellular infiltration in liver at 19.45 mg/kg, ip administered as single dose by H and E staining based analysis; format: organism-based; conditions: in vivo
[12] = Toxicity in male BALB/c mouse assessed as lethal dose administered as ip measured after 7 days; format: organism-based; conditions: in vivo, ip, 168 h, time 7 day
[13] = Toxicity in male BALB/c mouse assessed as cell necrosis in liver at 19.45 mg/kg, ip administered as single dose by H and E staining based analysis; format: organism-based; conditions: in vivo
[14] = Toxicity in male BALB/c mouse assessed as cellular infiltration in kidney at 19.45 mg/kg, ip administered as single dose by H and E staining based analysis; format: organism-based; conditions: in vivo
[15] = Toxicity in male BALB/c mouse assessed as cellular infiltration in lung at 19.45 mg/kg, ip administered as single dose by H and E staining based analysis; format: organism-based; conditions: in vivo
[16] = Toxicity in male BALB/c mouse assessed as hemorrhage in liver at 19.45 mg/kg, ip administered as single dose by H and E staining based analysis; format: organism-based; conditions: in vivo
[17] = Toxicity in male BALB/c mouse assessed as survival rate at 15 mg/kg, ip measured after 7 days relative to control; format: organism-based; conditions: in vivo, 168 h, time 7 day
[18] = Toxicity in male BALB/c mouse assessed as alveolar shrinkage in lung at 19.45 mg/kg, ip administered as single dose by H and E staining based analysis; format: organism-based; conditions: in vivo
[19] = Toxicity in male BALB/c mouse assessed as survival rate at 23.8 to 30 mg/kg, ip measured within 30 mins relative to control; format: organism-based; conditions: in vivo, 0.5 h, dose 23.8-30 mg/kg
[20] = Toxicity in male BALB/c mouse assessed as hemorrhage in spleen at 19.45 mg/kg, ip administered as single dose by H and E staining based analysis; format: organism-based; conditions: in vivo
[21] = Toxicity in male BALB/c mouse assessed as hemorrhage in lung at 19.45 mg/kg, ip administered as single dose by H and E staining based analysis; format: organism-based; conditions: in vivo
[22] = Toxicity in male BALB/c mouse assessed as cellular infiltration in spleen at 19.45 mg/kg, ip administered as single dose by H and E staining based analysis; format: organism-based; conditions: in vivo
[23] = Toxicity in male BALB/c mouse assessed as massive edema in kidney at 19.45 mg/kg, ip administered as single dose by H and E staining based analysis; format: organism-based; conditions: in vivo

Row | Compound | MIC (Klebsiella pneumoniae) | MIC (Staphylococcus aureus [3]) | MHC (Erythrocyte) | MIC (Enterococcus faecalis) | MIC (Acinetobacter baumannii) | MIC (Pseudomonas aeruginosa [5]) | MIC (Escherichia coli) | MIC (Bacillus subtilis) | MIC [7] | other results
1 | CO[C@H]1/C=C/O[C@@]2(C)Oc3c(C)c(O)c4c(O)c(c(/C=N/N5CCN(C)CC5)c(O)c4c3C2=O)NC(=O)/C(C)=C\C=C\[C@H](C)[C@H](O)[C@@H](C)[C@@H](O)[C@@H](C)[C@H](OC(C)=O)[C@@H]1C |  |  |  |  |  |  |  |  |  | Activity (Staphylococcus aureus [1]): inactive; Activity (Pseudomonas aeruginosa [2]): inactive
2 | CCC(C)CCC(=O)N[C@H](CC(N)=O)C(=O)N[C@H](Cc1c[nH]c2ccccc12)C(=O)N[C@H](Cc1c[nH]c2ccccc12)C(=O)N[C@H](CCCN)C(=O)N[C@@H](CCCN)C(=O)NCC(=O)N[C@H](CCCN)C(=O)N[C@@H](Cc1c[nH]c2ccccc12)C(=O)N[C@@H]1C(=O)N[C@@H]([C@@H](C)CC)C(=O)NCC(=O)N[C@@H](CO)C(=O)O[C@@H]1C (mixture of isomers) | 8 µM | 32 µM | 64 µM | 128 µM | 32 µM | 4 µM | 8 µM | 16 µM | 32 µM | fold change (FC) (Staphylococcus aureus [4]): 4; fold change (FC) (Staphylococcus aureus [6]): 4
3 | CCC(C)CCC(=O)N[C@H](CC(N)=O)C(=O)N[C@H](Cc1ccc(O)cc1)C(=O)N[C@H](Cc1c[nH]c2ccccc12)C(=O)N[C@H](CCCN)C(=O)N[C@@H](CCCN)C(=O)NCC(=O)N[C@H](C)C(=O)N[C@@H](Cc1c[nH]c2ccccc12)C(=O)N[C@@H]1C(=O)N[C@@H]([C@@H](C)CC)C(=O)NCC(=O)N[C@@H](CO)C(=O)O[C@@H]1C (mixture of isomers) | 16 µM | 32 µM | 32 µM | 64 µM | 8 µM | 16 µM | 8 µM | 16 µM | 32 µM | 
4 | CCC(C)CCC(=O)N[C@H](CC(N)=O)C(=O)N[C@H](Cc1ccc(O)cc1)C(=O)N[C@H](Cc1c[nH]c2ccccc12)C(=O)N[C@H](CCCN)C(=O)N[C@@H](CCCN)C(=O)N[C@@H](CCCN)C(=O)N[C@H](CCCN)C(=O)N[C@@H](Cc1c[nH]c2ccccc12)C(=O)N[C@@H]1C(=O)N[C@@H]([C@@H](C)CC)C(=O)NCC(=O)N[C@@H](CO)C(=O)O[C@@H]1C (mixture of isomers) | 2 µM | 32 µM | 128 µM | 128 µM | 8 µM | 1 µM | 2 µM | 8 µM | 16 µM | 
5 | CCC(C)CCC(=O)N[C@H](CC(N)=O)C(=O)N[C@H](Cc1ccc(O)cc1)C(=O)N[C@H](Cc1c[nH]c2ccccc12)C(=O)N[C@H](CCCN)C(=O)N[C@@H](C)C(=O)NCC(=O)N[C@H](CCCN)C(=O)N[C@@H](Cc1c[nH]c2ccccc12)C(=O)N[C@@H]1C(=O)N[C@@H]([C@@H](C)CC)C(=O)NCC(=O)N[C@@H](CO)C(=O)O[C@@H]1C (mixture of isomers) | 8 µM | 32 µM | 64 µM | 64 µM | 8 µM | 4 µM | 8 µM | 16 µM | 32 µM | 
6 | CCC(C)CCC(=O)N[C@H](CCCN)C(=O)N[C@H](Cc1ccc(O)cc1)C(=O)N[C@H](Cc1c[nH]c2ccccc12)C(=O)N[C@H](CCCN)C(=O)N[C@@H](CCCN)C(=O)NCC(=O)N[C@H](CCCN)C(=O)N[C@@H](Cc1c[nH]c2ccccc12)C(=O)N[C@@H]1C(=O)N[C@@H]([C@@H](C)CC)C(=O)NCC(=O)N[C@@H](CO)C(=O)O[C@@H]1C (mixture of isomers) | 2 µM | 32 µM | 128 µM | 64 µM | 8 µM | 1 µM | 4 µM | 4 µM | 16 µM | 
7 | CCC(C)CCC(=O)N[C@H](CC(N)=O)C(=O)N[C@H](Cc1ccc(O)cc1)C(=O)N[C@H](Cc1c[nH]c2ccccc12)C(=O)N[C@H](C)C(=O)N[C@@H](CCCN)C(=O)NCC(=O)N[C@H](CCCN)C(=O)N[C@@H](Cc1c[nH]c2ccccc12)C(=O)N[C@@H]1C(=O)N[C@@H]([C@@H](C)CC)C(=O)NCC(=O)N[C@@H](CO)C(=O)O[C@@H]1C (mixture of isomers) | 8 µM | 32 µM | 64 µM | 32 µM | 8 µM | 8 µM | 8 µM | 16 µM | 32 µM | 
8 | GENTAMICIN |  |  |  |  |  |  |  |  |  | Activity (Pseudomonas aeruginosa [8]): inactive; Activity (Staphylococcus aureus [9]): inactive
9 | POLYMYXIN B |  |  | 128 µM |  |  |  |  |  |  | Activity [10]: Toxic; Activity [11]: Toxic; LD50 [12]: 19.45 mg/kg; Activity [13]: Toxic; Activity [14]: Toxic; Activity [15]: Toxic; Activity [16]: Toxic; Survival [17]: 100%; Activity [18]: Toxic; Survival [19]: 0%; Activity [20]: Toxic; Activity [21]: Toxic; Activity [22]: Toxic; Activity [23]: Toxic
